Target: T1, GalK2 (N-acetyl-galactosamine kinase) (Homo sapiens, UniProt Q01415)
T1 sequence (Q01415 1-458): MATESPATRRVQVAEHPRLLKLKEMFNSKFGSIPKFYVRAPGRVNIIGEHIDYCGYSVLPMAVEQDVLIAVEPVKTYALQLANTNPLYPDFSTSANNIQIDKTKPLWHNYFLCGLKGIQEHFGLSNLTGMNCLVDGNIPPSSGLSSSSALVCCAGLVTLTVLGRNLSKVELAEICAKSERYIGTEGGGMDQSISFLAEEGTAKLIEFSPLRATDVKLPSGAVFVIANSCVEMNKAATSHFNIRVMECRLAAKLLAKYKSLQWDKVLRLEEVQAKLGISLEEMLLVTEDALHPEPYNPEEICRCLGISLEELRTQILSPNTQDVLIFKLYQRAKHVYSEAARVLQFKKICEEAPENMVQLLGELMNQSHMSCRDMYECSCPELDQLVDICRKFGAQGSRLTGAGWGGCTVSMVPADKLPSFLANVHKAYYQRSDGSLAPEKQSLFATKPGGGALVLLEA
Test: […]gamma-ATP phosphorylation, Dowex column, scintillation counting
Assay type: biochemical
Conditions: 40 mM sugar, 5 mM ATP, 10 mM MgCl2, 50 mM Tris HCl pH 8.0, 37 °C

Row | SMILES | [32P]gamma-ATP phosphorylation, Dowex column, scintillation counting
1 | CC(=O)N[C@H]1C(O)O[C@H](CO)[C@H](O)[C@@H]1O (some centres unmarked) [GalNAc] | GalK2 readily phosphorylated both GalNAc and GlcNAc
2 | CC(=O)N[C@H]1C(O)O[C@H](CO)[C@@H](O)[C@@H]1O (some centres unmarked) [GlcNAc] | GalK2 readily phosphorylated both GalNAc and GlcNAc

From PMC4156869 (Journal of the American Chemical Society, 2014)
